According to US20150150909A1, “ANTI-GLYCATION METHODS AND COMPOSITIONS” (CORE INTELLECTUAL PROPERTIES HOLDINGS, LLC, priority 2007, published 2015):
Values joined by “and” are separate entries in the source; they are usually repeats but may differ in a detail not shown here. Equal entries are not always repeated.

Columns and labels:
[1] = system: human dermal fibroblasts from a donor; assay: MTT mitochondrial metabolism assay (Example 3); type: cell-based
Method: The objective of this assay was to test the effect of mineral extract compositions (6 lots) on the mitochondrial metabolism in a cell culture population, using MTT assay. MTT assay measures the activity of succinate dehydrogenase, a key enzyme in the respiratory electron transport chain is mitochondria (Berridge & Tan, 1993).
Mineral extract compositions were diluted in type I sterile water to 10 mg/ml, sterilized by 0.22 micron filtration and incubated at dilutions 500 ug/ml, 50 ug/ml and 5 ug/ml and 0.5 ug/ml with 2,500 human dermal fibroblasts from a donor (Cascade Biologics, lot #061215-901) per well for 72 h in high glucose DMEM medium with 2.5% calf serum.
For mitochondrial metabolism measurement, at the end of the experiment, MTT (3-(4,5-dimethylthiazol-2-yl)-2,5-diphhenyltetrazolium bromide, Sigma cat. #M 5655) was added to cell cultures and incubated for 2 h. Culture media were then discarded and intracellular MTT reduction product formazan was solubilized in 100% DMSO. The colorimetric signal proportional to the mitochondrial activity in the cell cultures was measured with the BioRad microplate spectrophotometer 3550-UV at 570 nm.
The mitochondrial metabolism was standardized with regard to cell numbers by establishing the ratio of the two corresponding signals.

human dermal fibroblasts = assay: MTT mitochondrial metabolism assay (Example 10); type: cell-based
Excerpt: The objective of this Example was to test the effect of 4 samples: A mogroside/mineral extract composition (Labeled—1 in FIG. 6A), mineral extract composition (Labeled—2 in FIG. 6A), Sucralose liquid concentrate (Labeled—3 in FIG. 6A) and erythritol (Labeled—4 in FIG. 6A) on the mitochondrial metabolism I fibroblast populations, using MTT assay. MTT assay measures the activity of succinate dehydrogenase, a key enzyme in the respiratory electron transport chain in mitrochondria (Berridge & Tan, 1993).
Test materials-were mogroside/mineral extract composition as made above in Example 9, mineral extract composition (˜3% Solution), Sucralose Liquid Concentrate (25% Sucralose by weight)—lot #F2304B311LB and Erythritol (25% Aqueous Solution)—lot #RFA 2104-35, and were kept at room temperature. Materials were diluted in type I sterile water, filtered through a 0.22μ filter and assayed at final concentrations of 2.5%, 0.5% and 0.05% (v:v) on human dermal fibroblasts (Invitrogen) for 72 h in high glucose DMEM medium with 5% calf serum.
In order to measure mitochondrial metabolism in whole cell populations, at the end of the experiment, MTT (3-(4,5-dimethylthiazol-2-yl)-2,5-diphenyltetrazolium bromide, Sigma cat. #M 5655) was added to cell cultures and incubation was continued for an additional 2 hours. Culture media were then discarded and intracellular MTT reduction product formazan was solubilized in 90% isopropanol. The colorimetric signal proportional to the mitochondrial activity in the cell cultures was measured with the BioRad microplate spectrophotometer 3550-UV at 570 nm.

[2] = system: adult human dermal fibroblasts (aHDF); assay: Type I collagen sandwich ELISA in aHDF conditioned medium (Example 9); type: cell-based; details: all concentrations tested (0.5%, 0.1%, 0.05%, 0.01% w:v); 72 h
Method: A mineral extract composition (TL), Lot #100-151106, ˜3% Solution, and a mogroside/mineral extract composition as taught herein (SS II), mogrosides of Luo Han Guo Extract (Luo HG, Lot #MOG01-060502), Erythritol (Eryt, Lot #07241BP952) and Xylitol (Xylit, Lot #H125T7G1) were tested in the assay. All test materials were kept at room temperature. […] Water was the non-treated control and magnesium ascorbyl phosphate (MAP cat. #A8960, Sigma, St. Louis, Mo.) was the positive control. Cell culture conditioned media were harvested 72 h after the start of the experiment and tested for type I collagen by sandwich ELISA using affinity-purified antibodies, followed by streptavidin-avidin-HRP conjugate and ABTS, according to standard ELISA protocol (Dobak et al., 1994, Zhao et al, 2005). The colorimetric signal proportional to collagen content was measured with the BioRad microplate spectrophotometer 3550-UV at 405 nm.

albumin [3] = assay: AGE formation in the albumin/glucose model system (Example 11); type: biochemical
Method: Mineral extract composition (TL, ˜3% Solution) and a mogroside/mineral extract composition (SS II), Luo Han Guo Extract (L, Lot #MOG01-060502), Erythritol (E, Lot #07J241BP952) and Xylitol (X, Lot #H125T7G1) were kept at room temperature. […] The positive inhibitor control was aminoguanindine hydrochloride (AG) at 1 mM, (Sigma 396494). Protein glycation was detected by the increase of non-tryptophan fluorescence (excitation at 360 nm, emission at 460 nm) using microplate fluorometer Cytofluor 2350 (Millipore), as previously described (Argirova and Argirov, 2003). The glycation value for each experimental point was obtained by subtracting the background reading (samples without glucose) and was expressed as % of control (water).

[4] = system: Normal human dermal fibroblasts; assay: Type I collagen sandwich ELISA in fibroblast conditioned medium (Example 4); type: cell-based; details: positive control; 5 days; FIG. 3
Method: Normal human dermal fibroblasts (passage 7, lot #7F1254, Cambrex, Walkersville, Md.) were seeded in a 96-well plate (plate #431) in DMEM medium (high glucose) containing 5% fetal calf serum, and grown to late subconfluent stage. Aqueous solutions of mineral extract composition were prepared in sterile Type I water and added to cell cultures at 1/20 dilution. Water was the non-treated control and magnesium ascorbyl phosphate (MAP cat. #A8960, Sigma, St. Louis, Mo.) was the positive control. Cell culture conditioned media were harvested 5 days after the start of the experiment and tested for type I collagen by sandwich ELISA using affinity-purified antibodies, followed by streptavidin-avidin-HRP conjugate and ABTS, according to standard ELISA protocol (Dobak et al., 1994, Zhao et al, 2005).
The colorimetric signal proportional to collagen content was measured with the BioRad microplate spectrophotometer 3550-UV at 405 nm. See FIG. 3, Effect of mineral extract composition on type I collagen in HDF-conditioned medium.

[5] = system: Clostridium collagenase IV; assay: Metalloproteinase (collagenase) activity, Enzcheck quenched fluorescent gelatin (Example 5); type: biochemical; details: 100 ug/ml; positive control
Method: Metalloproteinase (MP) (collagenase) activity was measured with Enzcheck kit from Molecular Probes (Invitrogen, IL) using quenched fluorescent gelatin and Clostridium collagenase IV, a generic metalloproteinase. Mineral extract composition, in dilutions of 500 ug/ml, 50 ug/ml and 5 ug/ml and 0.5 ug/ml, were incubated in the presence of collagenase substrate-quenched fluorescin-linked gelatin and in the presence of the proteolytic enzyme collagenase. Phenanthroline, a potent MP inhibitor was used as positive control at 100 ug/ml. The kinetics of the release of the digested, fluorescent gelatin were measured at excitation/emission wavelengths of 485/530 nm with Millipore Cytofluor 2350 microfluorometer.

albumin [6] = assay: Albumin/glucose anti-glycation assay (Example 1); type: biochemical; details: 1 mM; positive control; FIG. 1
Method: Each reaction mixture contained 10 mg/ml albumin (Sigma) in PBS with 500 mM glucose (Sigma G8270) in PBS. The negative control was 10 mg/ml albumin without glucose. A negative control was used for each experimental point. The positive control was 10 mg/ml albumin with 500 mM glucose with 1 mM aminoguanidine hydrochloride (Sigma 396494).
Each mineral extract composition was diluted in type I sterile water to 10 mg/ml sterilized by 0.22 micron filtration and incubated at dilutions 100 ug/ml, 10 ug/ml, 1 ug/ml and 0.1 ug/ml with the reaction mixture with or without glucose for 11 days at 37° C. in the presence of sodium azide.
Protein glycation was detected by the increase of non-tryptophan fluorescence (excitation at 360 nm, emission at 460 nm) using microplate fluorometer Cytofluor 2350 (Millipore), as described (Argirova and Argirov, 2003). The glycation value for each experimental point was obtained by subtracting the background reading (samples without glucose).

[7] = system: Normal human dermal fibroblasts (NHDF); assay: AGE in extracellular matrix collagen of glucose-treated NHDF, anti-AGE antibody spot blot (Example 2); type: cell-based; details: 1 mg/ml; for Intensity (AU): single replicates, hydrochloride
Method: Normal human dermal fibroblasts (NHDF) were cultivated in conditions that allow the synthesis of high amounts of extracellular matrix (ECM). NHDF were grown to confluence in normal medium in adequate format. Vitamin C was added to the media to induce matrix synthesis/deposition Cells were treated, (or not treated for the negative control) by three concentrations of the mineral extract composition or by a reference compound for a positive control (aminoguanidine). All the conditions were performed in triplicate. An excess of glucose was added to the cells and the cells were incubated at 37° C. for 15 days. At the end of the time, ECM proteins (mainly collagen) were extracted and purified and a fraction of each sample was loaded onto nitrocellulose in reproducible spots. The introduction of AGEs in collagen was shown using an anti-AGE antibody and it was labeled using a peroxidase conjugate and chemiluminescent reaction (ECL). Relative signal qualification was performed using a chemiluminescense imager.

[8] = 2.5%, 0.5% and 0.05% (v:v), 72 h, FIG. 6A

bFGF: basic fibroblast growth factor, positive control
sensitivity of fibroblast mitochondrial metabolism ([1]; results not shown): not sensitive
effect on mitochondrial metabolism (MTT) (human dermal fibroblasts; 15 nM, positive control): metabolic stimulation

OC[C@@H](O)[C@H](O)[C@@H](O)CO [Xylitol]
collagen-stimulatory activity [2]: no significant activity
glycation-inhibitory effect (albumin [3]; all concentrations tested (0.5%, 0.1%, 0.05%, 0.01% w:v), FIG. 7): no effect

OC[C@@H](O)[C@@H](O)CO [Erythritol]
collagen-stimulatory activity [2]: no significant activity
effect on mitochondrial metabolism (MTT) (human dermal fibroblasts; [8]): no activity
glycation-inhibitory effect (albumin [3]; at lower concentrations): moderate inhibitory effect

CN(CC(=O)O)C(=N)N [creatine]
stimulation of mitochondrial metabolism ([1]; 500 ug/ml, 72 h): 6.3%

O=C1O[C@H]([C@@H](O)CO)C([O-])=C1OP(=O)([O-])[O-].O=C1O[C@H]([C@@H](O)CO)C([O-])=C1OP(=O)([O-])[O-].[Mg+2].[Mg+2].[Mg+2] [MAP, magnesium ascorbyl phosphate]
stimulation of collagen I [4]: Strong stimulation

c1cnc2c(c1)ccc1cccnc12 [phenanthroline, Phenanthroline]
MP activity [5]: totally inhibited

Cl.N=C(N)NN [Aminoguanidine, aminoguanidine hydrochloride]
inhibitory activity on albumin glycation (albumin [6]): good inhibitory activity
% Control ([7]; First membrane): 62%
Average ([7]; First membrane): 33454 AU
Intensity (AU) ([7]; First membrane): 38328 AU and 37316 AU and 24719 AU
% Control ([7]; Membrane 2): 64%
Average ([7]; Membrane 2): 38752 AU
Intensity (AU) ([7]; Membrane 2): 38464 AU (2×) and 41333 AU (2×) and 36460 AU (2×)
glycation-inhibitory activity (albumin [3]; 1 mM, positive inhibitor control): strong glycation-inhibitory activity

OC[C@H]1O[C@H](O[C@]2(CCl)O[C@H](CCl)[C@@H](O)[C@@H]2O)[C@H](O)[C@@H](O)[C@H]1Cl [Sucralose]
effect on mitochondrial metabolism (MTT) (human dermal fibroblasts; [8]): inhibited cell metabolism
